Data on four cell lines can be found in the supplement of paper PMC10307832.

Common to all, as to test: relative viability (nuclei count vs DMSO), 5 days (fraction); higher = more cells survive
Compound in the experiment “MK-2206 + Navitoclax”: NC1(c2ccc(-c3nc4ccn5c(=O)[nH]nc5c4cc3-c3ccccc3)cc2)CCC1 [MK-2206] + CC1(C)CCC(c2ccc(Cl)cc2)=C(CN2CCN(c3ccc(C(=O)NS(=O)(=O)c4ccc(N[C@H](CCN5CCOCC5)CSc5ccccc5)c(S(=O)(=O)C(F)(F)F)c4)cc3)CC2)C1 [Navitoclax] (partner 0.5 µM)
The procedure, abridged: (§1)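 The day after seeding in 1536-well plates, lung cancer cell lines were treated by pin tool with a single drug, or with a fixed anchor-drug dose together with five library-drug doses (not always all listed) in √10 steps. After 5 days, a combined fix-and-stain solution (final 0.05% Triton X-100, 1% formaldehyde, 1 ug/ml Hoechst) was added. Nuclei counted on 4× images gave relative viability as treated counts over vehicle counts, reported as the median of duplicate plates.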

Compound in the experiment “MK-2206 + Phenformin”: NC1(c2ccc(-c3nc4ccn5c(=O)[nH]nc5c4cc3-c3ccccc3)cc2)CCC1 [MK-2206] + N=C(N)NC(=N)NCCc1ccccc1 [Phenformin] (partner 250 µM)
The procedure, abridged: as §1

Compound in the experiment “MK-2206 + Dasatinib”: NC1(c2ccc(-c3nc4ccn5c(=O)[nH]nc5c4cc3-c3ccccc3)cc2)CCC1 [MK-2206] + Cc1nc(Nc2ncc(C(=O)Nc3c(C)cccc3Cl)s2)cc(N2CCN(CCO)CC2)n1 [Dasatinib] (partner 0.075 µM)
The procedure, abridged: as §1

Compound in the experiment “Pictilisib + Alpelisib”: CS(=O)(=O)N1CCN(Cc2cc3nc(-c4cccc5[nH]ncc45)nc(N4CCOCC4)c3s2)CC1 [Pictilisib] + Cc1nc(NC(=O)N2CCC[C@H]2C(N)=O)sc1-c1ccnc(C(C)(C)C(F)(F)F)c1 [Alpelisib] (partner 2 µM)
The procedure, abridged: as §1

Compound in the experiment “MK-2206 + Pemetrexed”: NC1(c2ccc(-c3nc4ccn5c(=O)[nH]nc5c4cc3-c3ccccc3)cc2)CCC1 [MK-2206] + Nc1nc2[nH]cc(CCc3ccc(C(=O)N[C@@H](CCC(=O)O)C(=O)O)cc3)c2c(=O)[nH]1 [Pemetrexed] (partner 0.2 µM)
The procedure, abridged: as §1

Take NCI-H647: the relative viability in the experiment with MK-2206 + Navitoclax (first compound 0.01 µM) worked out at 1.02; with MK-2206 + Navitoclax (first compound 0.03162 µM) it was 1.21; with MK-2206 + Navitoclax (first compound 0.3162 µM), 0.969; with MK-2206 + Navitoclax (first compound 1 µM) it was 1.02; with MK-2206 + Phenformin (first compound 0.01 µM), 0.479; with MK-2206 + Phenformin (first compound 0.03162 µM) it was 0.542. The relative viability is 0.38 in the experiment with MK-2206 + Phenformin (first compound 0.3162 µM); 0.542 with MK-2206 + Phenformin (first compound 1 µM); 0.17 in the experiment with MK-2206 + Dasatinib (first compound 0.01 µM); 0.188 with MK-2206 + Dasatinib (first compound 0.03162 µM); 0.154 in the experiment with MK-2206 + Dasatinib (first compound 0.3162 µM); 0.156 in the experiment with MK-2206 + Dasatinib (first compound 1 µM). In addition, the relative viability with Pictilisib + Alpelisib (first compound 0.02 µM) was found to be 1.09; in the experiment with Pictilisib + Alpelisib (first compound 0.06325 µM), 1.26; in the experiment with Pictilisib + Alpelisib (first compound 0.6325 µM), 0.894; with Pictilisib + Alpelisib (first compound 2 µM), 0.467; with MK-2206 + Pemetrexed (first compound 0.01 µM), 0.201; with MK-2206 + Pemetrexed (first compound 0.03162 µM) it was 0.165. Besides, the values for the relative viability with MK-2206 + Pemetrexed (first compound 0.3162 µM) and in the experiment with MK-2206 + Pemetrexed (first compound 1 µM) were 0.144 and 0.134, respectively.
As for NCI-H1793, the relative viability with MK-2206 + Navitoclax (first compound 0.01 µM) stood at 0.521; with MK-2206 + Navitoclax (first compound 0.03162 µM) it was 0.475; with MK-2206 + Navitoclax (first compound 0.3162 µM) it was 0.352; with MK-2206 + Navitoclax (first compound 1 µM) it was 0.463; in the experiment with MK-2206 + Phenformin (first compound 0.01 µM) it was 0.386; with MK-2206 + Phenformin (first compound 0.03162 µM), 0.47. In addition, the relative viability in the experiment with MK-2206 + Phenformin (first compound 0.3162 µM) is 0.206; with MK-2206 + Phenformin (first compound 1 µM), 0.218; in the experiment with MK-2206 + Dasatinib (first compound 0.01 µM), 0.474; with MK-2206 + Dasatinib (first compound 0.03162 µM) it was 0.514; with MK-2206 + Dasatinib (first compound 0.3162 µM) it was 0.344; with MK-2206 + Dasatinib (first compound 1 µM), 0.317. Besides, the relative viability with Pictilisib + Alpelisib (first compound 0.02 µM) is 0.729; in the experiment with Pictilisib + Alpelisib (first compound 0.06325 µM), 0.516; with Pictilisib + Alpelisib (first compound 0.6325 µM), 0.566; with Pictilisib + Alpelisib (first compound 2 µM), 0.307; with MK-2206 + Pemetrexed (first compound 0.01 µM) it was 0.908; with MK-2206 + Pemetrexed (first compound 0.03162 µM) it was 0.863. The values for the relative viability with MK-2206 + Pemetrexed (first compound 0.3162 µM) and with MK-2206 + Pemetrexed (first compound 1 µM) were 0.844 and 0.783, respectively.
For SK-MES-1, the relative viability stood at 1.29 in the experiment with MK-2206 + Navitoclax (first compound 0.01 µM); 1.2 with MK-2206 + Navitoclax (first compound 0.03162 µM); 1.01 with MK-2206 + Navitoclax (first compound 0.3162 µM); 1.1 with MK-2206 + Navitoclax (first compound 1 µM); 0.65 with MK-2206 + Phenformin (first compound 0.01 µM); 0.72 in the experiment with MK-2206 + Phenformin (first compound 0.03162 µM). Also, the relative viability worked out at 0.609 with MK-2206 + Phenformin (first compound 0.3162 µM); 0.57 in the experiment with MK-2206 + Phenformin (first compound 1 µM); 0.396 with MK-2206 + Dasatinib (first compound 0.01 µM); 0.437 in the experiment with MK-2206 + Dasatinib (first compound 0.03162 µM); 0.356 with MK-2206 + Dasatinib (first compound 0.3162 µM); 0.425 with MK-2206 + Dasatinib (first compound 1 µM). In addition, the relative viability in the experiment with Pictilisib + Alpelisib (first compound 0.02 µM) came out at 0.856; with Pictilisib + Alpelisib (first compound 0.06325 µM), 0.804; with Pictilisib + Alpelisib (first compound 0.6325 µM), 0.634; in the experiment with Pictilisib + Alpelisib (first compound 2 µM) it was 0.45; with MK-2206 + Pemetrexed (first compound 0.01 µM) it was 0.881; with MK-2206 + Pemetrexed (first compound 0.03162 µM), 0.938. Besides, the relative viability with MK-2206 + Pemetrexed (first compound 0.3162 µM) came to 0.899; with MK-2206 + Pemetrexed (first compound 1 µM), 0.816.
Consider NCI-H2087, for which the relative viability with MK-2206 + Navitoclax (first compound 0.01 µM) is 1.14; in the experiment with MK-2206 + Navitoclax (first compound 0.03162 µM), 0.905; with MK-2206 + Navitoclax (first compound 0.3162 µM), 0.906; with MK-2206 + Navitoclax (first compound 1 µM), 0.912; with MK-2206 + Phenformin (first compound 0.01 µM), 0.531; with MK-2206 + Phenformin (first compound 0.03162 µM) it was 0.361. The relative viability with MK-2206 + Phenformin (first compound 0.3162 µM) came to 0.404; in the experiment with MK-2206 + Phenformin (first compound 1 µM), 0.317; with MK-2206 + Dasatinib (first compound 0.01 µM) it was 0.71; with MK-2206 + Dasatinib (first compound 0.03162 µM), 0.962; with MK-2206 + Dasatinib (first compound 0.3162 µM), 0.918; with MK-2206 + Dasatinib (first compound 1 µM) it was 0.775. The relative viability with Pictilisib + Alpelisib (first compound 0.02 µM) is 1.22; with Pictilisib + Alpelisib (first compound 0.06325 µM), 1.06; in the experiment with Pictilisib + Alpelisib (first compound 0.6325 µM), 1.02; with Pictilisib + Alpelisib (first compound 2 µM) it was 0.954; with MK-2206 + Pemetrexed (first compound 0.01 µM), 0.623; in the experiment with MK-2206 + Pemetrexed (first compound 0.03162 µM), 0.624. The figures for the relative viability with MK-2206 + Pemetrexed (first compound 0.3162 µM) and with MK-2206 + Pemetrexed (first compound 1 µM) were 0.667 and 0.684, respectively.
